Laboratory results published in patent publication US6713436B1, “1-cycloalkylpyrazolyl-benzoyl derivatives” (BASF Aktiengesellschaft, priority 1999, dated 2004).

Key:
Brachiaria plantaginea = test: greenhouse post-emergence herbicidal test; assay type: in vivo; conditions: Brachiaria plantaginea (alexander grass), application rates of 0.5 or 0.25 kg/ha
From the text: (§1) The seeds of the test plants were sown separately for each species. For the post-emergence treatment, the test plants were first grown to a height of 3 to 15 cm, depending on the plant habit, and only then treated with the active compounds which had been suspended or emulsified in water. The test plants were for this purpose either sown directly and grown in the same containers, or they were first grown separately as seedlings and transplanted into the test containers a few days prior to treatment. The application rate for the post-emergence treatment was 0.5 or 0.25 kg of a.s. (active substance)/ha. Depending on the species, the plants were kept at 10-25° C. or 20-35° C. The test period extended over 2 to 4 weeks. During this time, the plants were tended, and their response to the individual treatments was evaluated. The evaluation was carried out using a scale from 0 to 100. 100 means no emergence of the plants, or complete destruction of at least the aerial parts and 0 means no damage, or normal course of growth. The plants used in the greenhouse experiments were of the following species: [table]

Chenopodium album = test: greenhouse post-emergence herbicidal test; assay type: in vivo; conditions: Chenopodium album (lamb's-quarters), application rates of 0.5 or 0.25 kg/ha
From the text: as §1

Echinochloa crus-galli = test: greenhouse post-emergence herbicidal test; assay type: in vivo; conditions: Echinochloa crus-galli (barnyard grass), application rates of 0.5 or 0.25 kg/ha
From the text: as §1

Polygonum persicaria = test: greenhouse post-emergence herbicidal test; assay type: in vivo; conditions: Polygonum persicaria (lady's-thumb), application rates of 0.5 or 0.25 kg/ha
From the text: as §1

melting point: 135 to 140 °C
Compound: Cc1c(C(=O)c2cnn(C3CCCC3)c2O)ccc(S(C)(=O)=O)c1C1=NOCC1 [compound 4.6, 4-[2-Methyl-3-(4,5-dihydroisoxazol-3-yl)-4-methylsulfonylbenzoyl]-1-cyclopentyl-5-hydroxy-1H-pyrazole]
post-emergence action (Brachiaria plantaginea): very good
post-emergence action (Chenopodium album): very good
post-emergence action (Echinochloa crus-galli): very good
post-emergence action (Polygonum persicaria): very good
